Measured values taken from patent publication US5434256A, “Diamine platinum complexes as antitumor agents” (priority 1994, dated 1995).

What was measured:
L1210/0 cells [1] = assay: MTT cytotoxicity, L1210/0 (Example 5, Table 10); format: cell-based, murine; details: 72 hr (3 days) continuous exposure
L1210/0 cells [2] = assay: In vivo antitumor activity, L1210/0 (Example 6, Table 11); design: species or system male BDF1 mice; details: for % T/C at optimal dose: L1210/0 i.p., drug i.p. days 1, 5, 9, median survival, optimal dose (mg/kg/inj): 12, 13, 14: 25, 15: 12.5, Cisplatin: 5; for Optimal Dose: i.p., dose levels 1.56 to 200 mg/kg tested, L1210/0, L1210/DDP and M5076
Description: (§1) Cisplatin-sensitive L1210/0 or cisplatin-resistant L1210/DDP cells (1×10^5 cells/mouse) were injected intraperitoneally in male BDF1 mice on day 0, and the drug, in an aqueous medium, administered intraperitoneally at dose levels ranging from 1.56 to 200 mg/kg on days 1, 5 and 9. The median life spans of control (C) and treated (T) animals were determined, and the percent T/C at the optimal dose calculated as an indicator of antitumor efficacy. The complexes were also evaluated against the M5076 reticulosarcoma. […]. The tumor volumes were measured periodically and efficacy at the optimal dose reported as tumor growth delay (TGD), which is defined as the time difference in days for the tumor in control and treated mice to reach a specified volume.
(§2) BDF1 mice inoculated i.p. with 10^5 L1210 Leukemia cells on day 0 wer
administered the drug on days 1, 5, and 9. […]

L1210/DDP cells [3] = assay: MTT cytotoxicity, cisplatin-resistant L1210/DDP (Example 5, Table 10); format: cell-based, murine; details: 72 hr (3 days) continuous exposure
[4] = test system: Murine Leukemia L1210/DACH; assay: In vivo antitumor activity against murine leukemia L1210/DACH (Example 3, Table 6); design: species or system BDF1 mice; details: for MTD (Maximum Tolerated Dose) / % T/C (mean survival time of treated/mean survival time of control) × 100: L1210/DACH i.p., BDF1 mice, drug i.p. days 1, 5, 9; for % T/C (mean survival time of treated/mean survival time of control) × 100: at optimal dose/MTD
Description: (§3) Each of the platinum complexes was evaluated in vivo against L1210/0, L1210/DDP, L1210/DACH and M5076 cells at several dose levels. […] The data at optimal doses are reproduced in Tables 4-7 along with data for the cyclobutanedicarboxylato, aquasulfato, methylmalonato and tartronato analogs (compounds 1-4 in Table 1).
(§4) BDF1 mice inoculated i.p. with 10^5 L1210 Leukemia cells on day 0 and
(§5) drug administered i.p. on days 1, 5, and 9. MTD = Maximum Tolerated Dose
(§6) (mg/kg/injection), % T/C = (mean survival time of treated/mean survival
(§7) time of control) × 100. Figures in parenthesis indicated long term

Murine Leukemia 1210/DDP = assay: In vivo antitumor activity against murine leukemia L1210/DDP (Example 3, Table 7); design: species or system BDF1 mice; details: for MTD (Maximum Tolerated Dose) / % T/C (mean survival time of treated/mean survival time of control) × 100: L1210/DDP i.p., BDF1 mice, drug i.p. days 1, 5, 9; for % T/C (mean survival time of treated/mean survival time of control) × 100: at optimal dose/MTD
Description: as §3, §4
drug administed i.p. on days 1, 5, and 9. MTD = Maximum Tolerated Dose
as §6, §7

L1210/0 cells [5] = assay: Modified MTT cytotoxicity assay, murine leukemia L1210/0 (Example 2, Table 3); format: cell-based; details: for IC50: L1210/0, MTT, continuous exposure 5 days; for effectiveness against murine versus human cells (in words): L1210/0 versus A2780
M5076 Tumor Model = assay: In vivo antitumor activity against M5076 tumor model (Example 3, Table 4); design: species or system BDF1 mice; TGD (Tumor Growth Delay): unit not given beside the values; details: for MTD (Maximum Tolerated Dose) / TGD (Tumor Growth Delay): M5076 s.c., BDF1 mice, i.p. days 7, 14, 21, 28; for TGD (Tumor Growth Delay): at optimal dose/MTD
Description: as §3
BDF1 mice inoculated s.c. with 10' M5076 cells on day 0 and drug
administered i.p on days 7, 14, 21, and 28. MTD = Maximum Tolerated Dose
(mg/kg/injection), TGD = Tumor Growth Delay

L1210/DDP cells [6] = assay: In vivo antitumor activity, cisplatin-resistant L1210/DDP (Example 6, Table 11); design: species or system male BDF1 mice; details: L1210/DDP i.p.; drug i.p. days 1, 5, 9; median survival; optimal dose (mg/kg/inj): 12: 25; Cisplatin: 5
Description: as §1, §2
(§8) administered the drug on days 1, 5, and 9. BDF1 mice inoculated s.c. with
(§9) 10^7 M5076 cells on day 0 received the drug on days 5, 9, 13, and 17.
(§10) % T/C = [(median survival time of treated)/(median survival time of
(§11) control)] × 100. TGD = tumor growth delay.

Murine Leukemia L1210/0 = assay: In vivo antitumor activity against murine leukemia L1210/0 (Example 3, Table 5); design: species or system BDF1 mice; details: for % T/C (mean survival time of treated/mean survival time of control) × 100: at optimal dose/MTD
Description: as §3
BDF1 mice inoculated i.p. with 10^5 L1210 Leukemiacells on day 0 and
as §5, §6
time of control) × 100. Figures in parenthesis indicate long term

A2780 cells = assay: Modified MTT cytotoxicity assay, human ovarian A2780 (Example 2, Table 3); format: cell-based; details: continuous exposure (5 days in table footnote; 7 days in text)
L1210/DACH cells = assay: MTT cytotoxicity, tetraplatin-resistant L1210/DACH (Example 5, Table 10); format: cell-based, murine; details: 72 hr (3 days) continuous exposure
M5076 reticulosarcoma = assay: In vivo antitumor activity, M5076 reticulosarcoma (Example 6, Table 11); design: species or system male BDF1 mice; details: M5076 s.c.; drug i.p. days 5, 9, 13, 17; optimal dose (mg/kg/inj): 12: 25; Cisplatin: 5
Description: as §1, §2, §8, §9, §10, §11

[7] = Renal and hematological toxicity, single i.p. dose (Table 8)
[8] = L1210/0 i.p., BDF1 mice, drug i.p. days 1, 5, 9

## N.N.[Cl][Pt][Cl] [Cis-platin, cis-diaminedichloroplatinum(II), reference compound]
L1210/0 cells [1]
  IC50: 200 nM
L1210/0 cells [2]
  % T/C at optimal dose: 218%
  Optimal Dose: 5 mg/kg/inj
L1210/DDP cells [3]
  IC50: 32800 nM
[4]
  antitumor activity in vivo against L1210/DACH (in words): minimally sensitive to cis-platin
  MTD (Maximum Tolerated Dose): 5.0 mg/kg/injection
  % T/C (mean survival time of treated/mean survival time of control) × 100: 127%
Murine Leukemia 1210/DDP
  MTD (Maximum Tolerated Dose): 5.0 mg/kg/injection
  % T/C (mean survival time of treated/mean survival time of control) × 100: 100%
L1210/0 cells [5]
  IC50: 230 nM
  effectiveness against murine versus human cells (in words): more effective against murine than human cells
M5076 Tumor Model
  MTD (Maximum Tolerated Dose): 5.0 mg/kg/injection
  TGD (Tumor Growth Delay): 23.1
L1210/DDP cells [6]
  % T/C at optimal dose: 110%
Murine Leukemia L1210/0; [8]
  MTD (Maximum Tolerated Dose): 5.0 mg/kg/injection
  % T/C (mean survival time of treated/mean survival time of control) × 100: 218%
A2780 cells
  IC50: 360 nM
L1210/DACH cells
  IC50: 1910 nM
M5076 reticulosarcoma
  TGD (tumor growth delay) at optimal dose: 16.0 days

## CC(=O)[O][Pt]([Cl])([Cl])[O]C(C)=O.N[C@@H]1CCCC[C@H]1N [Compound 12, (R,R-1,2-DACH)PtCl2 trans(acetate)2]
L1210/0 cells [1]
  IC50: 220 nM
L1210/0 cells [2]
  % T/C at optimal dose: 276%
  Optimal Dose: 25 mg/kg/inj
L1210/DDP cells [3]
  IC50: 700 nM
L1210/DDP cells [6]
  % T/C at optimal dose: 144%
L1210/DACH cells
  IC50: 2300 nM
M5076 reticulosarcoma
  TGD (tumor growth delay) at optimal dose: 18.3 days

## CC(=O)[O][Pt]([Cl])([Cl])[O]C(C)=O.N[C@H]1CCCC[C@@H]1N [Compound 13, (S,S-1,2-DACH)PtCl2 trans-(acetate)2]
L1210/0 cells [1]
  IC50: 880 nM
L1210/0 cells [2]
  % T/C at optimal dose: 265%
  Optimal Dose: 25 mg/kg/inj
L1210/DDP cells [3]
  IC50: 7000 nM
L1210/DACH cells
  IC50: 4200 nM

## CC(=O)[O][Pt]([Cl])([Cl])[O]C(C)=O.NC1CCCCC1N [Compound 14, (cis-1,2-DACH)PtCl2 trans(acetate)2]
L1210/0 cells [1]
  IC50: 3000 nM
L1210/0 cells [2]
  % T/C at optimal dose: 171%
  Optimal Dose: 25 mg/kg/inj
L1210/DDP cells [3]
  IC50: 115000 nM
L1210/DACH cells
  IC50: 20900 nM

## N[C@@H]1CCCC[C@H]1N.O=C([O][Pt]([Cl])([Cl])[O]C(=O)C(F)(F)F)C(F)(F)F [Compound 15, (R,R-1,2-DACH)PtCl2 trans(trifluoroacetate)2]
L1210/0 cells [1]
  IC50: 100 nM
L1210/0 cells [2]
  % T/C at optimal dose: 241%
  Optimal Dose: 12.5 mg/kg/inj
L1210/DDP cells [3]
  IC50: 850 nM
L1210/DACH cells
  IC50: 1720 nM

## N[C@@H]1CCCC[C@H]1N.[Cl][Pt+2]([Cl])([Cl])[Cl] [Tetraplatin, reference compound]
L1210/0 cells [1]
  IC50: 110 nM
L1210/DDP cells [3]
  IC50: 440 nM
[7]; blood urea nitrogen, single i.p. dose (mg/kg): 1,4-DACH-Pt^II CBDCA 300, 1,4-DACH-Pt^IV Cl4 8.0, Tetraplatin 8.0, Cis-platin 12.0, Carboplatin 150, saline control 20.9
  BUN d.5: 17.2 mg %
[7]; single i.p. dose (mg/kg): 1,4-DACH-Pt^II CBDCA 300, 1,4-DACH-Pt^IV Cl4 8.0, Tetraplatin 8.0, Cis-platin 12.0, Carboplatin 150
  Survivors on d.14: 5/5
[7]; single i.p. dose (mg/kg): 1,4-DACH-Pt^II CBDCA 300, 1,4-DACH-Pt^IV Cl4 8.0, Tetraplatin 8.0, Cis-platin 12.0, Carboplatin 150, mean, S.D. less than 20%
  Body Wt. on d.5: 94 % on control
[7]; single i.p. dose, leucopenia
  myelotoxicity / myelosuppression (in words): myelosuppressive
[4]
  antitumor activity in vivo against L1210/DACH (in words): resistant to tetraplatin
  MTD (Maximum Tolerated Dose): 3.1 mg/kg/injection
  % T/C (mean survival time of treated/mean survival time of control) × 100: 89%
Murine Leukemia 1210/DDP; L1210/DDP
  antitumor activity in vivo against L1210/DDP (in words): active
Murine Leukemia 1210/DDP
  MTD (Maximum Tolerated Dose): 3.1 mg/kg/injection
  % T/C (mean survival time of treated/mean survival time of control) × 100: 143%
L1210/0 cells [5]
  IC50: 110 nM
  effectiveness against murine versus human cells (in words): more effective against murine than human cells
L1210/0 cells [5]; L1210/0 and A2780 tumor lines, more potent than cis-platin
  potency relative to cis-platin: 2-3 fold
M5076 Tumor Model; M5076
  antitumor properties against M5076 (in words): the least active
M5076 Tumor Model
  MTD (Maximum Tolerated Dose): 3.1 mg/kg/injection
  TGD (Tumor Growth Delay): 11.8
Murine Leukemia L1210/0; L1210/0
  antitumor activity in vivo against L1210/0 (in words): active
Murine Leukemia L1210/0; [8]
  MTD (Maximum Tolerated Dose): 3.1 mg/kg/injection
  % T/C (mean survival time of treated/mean survival time of control) × 100: 310%
Murine Leukemia L1210/0; L1210/0 i.p., BDF1 mice, drug i.p. days 1, 5, 9, figures in parenthesis
  long term survivors/no. tested: 2/5
A2780 cells
  IC50: 200 nM
L1210/DACH cells
  IC50: 5300 nM
